# Assays:
# Type in all cases: physicochemical
# [1] = Xenon lamp light-resistance test of the printed images; settings: ink with 6 parts dye, ink-jet printed on glossy photo paper; xenon lamp 0.36 W/m^2, 50 h, 60% RH, 24° C.; grade by color difference ΔE
# Description: (§1) The mixture product M1, M2 or M3 and the pure compound obtained by separation according to the embodiments 1-3 are used as the magenta colorant, and the ink composition is prepared according to the formula shown in following table 1, and the magenta aqueous ink composition is obtained by filtering with a 0.45 μm membrane filter, wherein triethanolamine is added to adjust the pH value of the ink composition to 8-10, and deionized water is added to make the total amount reach 100 parts-by-weight (PBW).
# (§2) Use an ink-jet printer (Epson 270 manufactured by Epson Company), glossy photo paper (Epson) and the above described ink compositions for ink-jet printing.
# (1) Xenon Lamp Light-Resistance Test of the Printed Images
# Irradiate the printed glossy photo paper manufactured by Canon and Epson with Xenon-lamp Weathering Test Chamber ZG-P (manufactured by China Surui Company) at 60% RH and 24° C. with illuminance of 0.36 W/m^2 for 50 h to test the color difference (ΔE) before and after the test. The color difference (ΔE) is calculated from the differences of values of L*, a*, b* before and after the test in the above described color measurement system (Unterlab) by the followings formula: ΔE=((difference of L*)^2+(difference of a*)^2+(difference of b*)^2)^1/2.
# Three grades will be divided for the evaluation based on the following benchmark: […]
# [2] = Ozone gas resistance of the printed images; settings: ink with 6 parts dye, printed on glossy photo paper; 40 ppm ozone, 60% RH, 24° C.; grade by color difference ΔE
# Description: Use an ink-jet printer (Epson 270 manufactured by Epson Company), glossy photo paper (Epson) and the above described ink compositions for ink-jet printing. (2) Ozone Gas Resistance of the Printed Images Place the printed images in the Ozone Weathering Test Chamber (manufactured by China Surui Company) at 60% RH, 24° C. and 40 ppm ozone. Calculated the color difference (ΔE) before and after the test by the same method as described in (1) above and evaluate it in 3 grades based on the following benchmark: ΔE<10 ∘ ΔE<20 Δ ΔE>20 x
# [3] = Moisture resistance of the printed images; design: key: ∘: No bleeding; Δ: Slight bleeding; x: Notable bleeding; settings: printed images at 50° C. and 90% RH for 168 h; bleeding judged by bare eyes
# Description: as §1, §2
# (3) Moisture Resistance of the Printed Images
# Place the printed images in the Constant Temperature and Humidity Chamber (manufactured by China Surui Company) at 50° C. and 90% RH for 168 h; judge the bleeding of the ink by bare eyes before and after the test and evaluate it in 3 grades based on the following benchmark: […]
# [4] = Evaluation of the dye solubility in water; settings: grade by g/100 g water
# Excerpt: (D) Evaluation of the Dye Solubility in Water (g/100 g Water)
# Solubility of the dye in water >30 ∘
# Solubility of the dye in water >15-20 Δ
# Solubility of the dye in water <15 x
# [5] = Evaluation of long-term stability of the dye in aqueous solvent system; design: key: ∘: No precipitation; Δ: Slight precipitation; x: Notable precipitation; settings: 20 parts dye, 70 parts water, 10 parts ethylene glycol; 50° C. for 7d, then 0° C. for 7d; filtered, precipitation graded
# Description: (E) Evaluation of Long-Term Stability of the Dye in Aqueous Solvent System
# Heat and dissolve the system of 20 parts of dyes, 70 parts of water and 10 parts of ethylene glycol; after the solution cools down, store it airtight at a constant temperature of 50° C. for 7d; cool it down and store it at 0° C. for 7d; filter the solution and evaluate it in 3 grades based on the following benchmark: […]
SMILES,Ultraviolet resistance of ink printed images [1],Ozone resistance of ink printed images [2],Water resistance of ink printed images [3],Solubility of dye in water [4],Long-term stability of the dye in aqueous solvent system [5]
"O=S(=O)([O-])c1cc(Nc2nc(Nc3ccc(/C=C/c4ccc(Nc5nc(Nc6cc(S(=O)(=O)[O-])cc7cc(S(=O)(=O)[O-])c(N=Nc8ccccc8)c(O)c67)nc(N6CCOCC6)n5)cc4S(=O)(=O)[O-])c(S(=O)(=O)[O-])c3)nc(N3CCOCC3)n2)c2c(O)c(N=Nc3ccccc3)c(S(=O)(=O)[O-])cc2c1.[Na+].[Na+].[Na+].[Na+].[Na+].[Na+] [C.I. direct red 227, reference compound]",x (ΔE>20),x (ΔE>20),Δ,x (Solubility of the dye in water <15),Δ
O=C(O)CCCS(=O)(=O)c1cc(S(=O)(=O)O)c(Nc2cc(S(=O)(=O)O)c3[nH]c(=O)c(C(=O)c4cccc(S(=O)(=O)O)c4)c4c3c2C(=O)c2ccccc2-4)c(S(=O)(=O)O)c1 [Dp2],∘ (ΔE<10),∘ (ΔE<10),∘,∘ (Solubility of the dye in water >30),∘

# Results, then the compound that gave them:
Ultraviolet resistance of ink printed images [1],Ozone resistance of ink printed images [2],Water resistance of ink printed images [3],Solubility of dye in water [4],Long-term stability of the dye in aqueous solvent system [5],SMILES
∘ (ΔE<10),∘ (ΔE<10),∘,∘ (Solubility of the dye in water >30),∘,O=C(CCCS(=O)(=O)c1cc(S(=O)(=O)O)c(Nc2cc(S(=O)(=O)O)c3[nH]c(=O)c(C(=O)c4cccc(S(=O)(=O)O)c4)c4c3c2C(=O)c2ccccc2-4)c(S(=O)(=O)O)c1)c1cccc(S(=O)(=O)O)c1 [Dp4]
∘ (ΔE<10),∘ (ΔE<10),∘,∘ (Solubility of the dye in water >30),∘,O=C(c1cccc(S(=O)(=O)O)c1)c1c2c3c(c(Nc4c(S(=O)(=O)O)cc(S(=O)(=O)CCC5C(=O)c6ccccc6C5=O)cc4S(=O)(=O)O)cc(S(=O)(=O)O)c3[nH]c1=O)C(=O)c1ccccc1-2 [Dp8]
∘ (ΔE<10),∘ (ΔE<10),∘,∘ (Solubility of the dye in water >30),∘,O=C(c1cccc(S(=O)(=O)O)c1)c1c2c3c(c(Nc4c(S(=O)(=O)O)cc(S(=O)(=O)CCC5C(=O)c6ccc(S(=O)(=O)O)cc6C5=O)cc4S(=O)(=O)O)cc(S(=O)(=O)O)c3[nH]c1=O)C(=O)c1ccccc1-2 (stereo not shown) [Dp10]

# From patent US8734580B2, “Carbonyl propyl sulfuryl anthrapyridone sulfonic acid compounds and their preparation methods and applications” (Dalian University of Technology, priority 2011, dated 2014)
